Measured values reported in PMC3608355, “Amino Acid Derivatives as New Zinc Binding Groups for the Design of Selective Matrix Metalloproteinase Inhibitors” (Journal of Amino Acids, 2013).
Where a name gives a salt, the structure may show the parent alone. Read-outs that look alike come from different tables or passages of the source.

What was measured:
[1] = biological target: T1, MMP-2 (Homo sapiens, UniProt P08253)
T1 sequence (P08253 110-660): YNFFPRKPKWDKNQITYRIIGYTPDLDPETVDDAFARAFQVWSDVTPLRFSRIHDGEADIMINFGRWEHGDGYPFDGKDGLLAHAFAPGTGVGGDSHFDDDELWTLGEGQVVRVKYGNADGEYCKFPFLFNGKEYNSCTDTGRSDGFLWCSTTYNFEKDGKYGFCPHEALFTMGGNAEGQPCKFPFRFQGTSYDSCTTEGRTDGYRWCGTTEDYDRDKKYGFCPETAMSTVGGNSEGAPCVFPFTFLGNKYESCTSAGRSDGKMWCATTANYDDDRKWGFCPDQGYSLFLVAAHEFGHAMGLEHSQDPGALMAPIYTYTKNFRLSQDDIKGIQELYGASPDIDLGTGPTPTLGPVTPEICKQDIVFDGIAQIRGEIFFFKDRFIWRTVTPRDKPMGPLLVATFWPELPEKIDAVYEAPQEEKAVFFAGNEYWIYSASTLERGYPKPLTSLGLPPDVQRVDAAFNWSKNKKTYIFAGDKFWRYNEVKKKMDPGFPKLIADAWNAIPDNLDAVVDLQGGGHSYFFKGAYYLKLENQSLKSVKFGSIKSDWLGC

[2] = biological target: MMP-9 (Homo sapiens, UniProt P14780); assay: MMP inhibition fluorometric assay, MMP-9; conditions: for ΔG exp MMP-9: experimental binding energy from activity data, racemic mixture tested
[3] = biological target: MMP-8 (Homo sapiens, UniProt P22894); assay: MMP inhibition fluorometric assay, MMP-8; conditions: for ΔG exp MMP-8: experimental binding energy from activity data, racemic mixture tested
[4] = biological target: T2, MMP-1 (Homo sapiens, UniProt P03956); assay: MMP inhibition fluorometric assay, MMP-1; conditions: for ΔG exp MMP-1: experimental binding energy from activity data, racemic mixture tested
T2 sequence (P03956 100-469): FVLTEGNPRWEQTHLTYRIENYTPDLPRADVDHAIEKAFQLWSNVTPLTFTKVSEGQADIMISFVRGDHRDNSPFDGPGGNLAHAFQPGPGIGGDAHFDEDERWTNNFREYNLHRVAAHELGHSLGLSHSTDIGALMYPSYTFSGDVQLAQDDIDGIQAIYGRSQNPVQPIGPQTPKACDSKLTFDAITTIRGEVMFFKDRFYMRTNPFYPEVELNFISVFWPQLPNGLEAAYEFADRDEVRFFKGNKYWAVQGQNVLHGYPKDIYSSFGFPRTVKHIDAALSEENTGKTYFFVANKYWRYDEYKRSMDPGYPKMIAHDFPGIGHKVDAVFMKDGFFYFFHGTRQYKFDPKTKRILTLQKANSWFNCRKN

[5] = biological target: T1, MMP-2; assay: biochemical
[6] = experimental binding energy from activity data, chiral compounds tested as racemic mixture
[7] = ratio of IC50 values versus 25a

MMP-8, sequence (P22894 101-467): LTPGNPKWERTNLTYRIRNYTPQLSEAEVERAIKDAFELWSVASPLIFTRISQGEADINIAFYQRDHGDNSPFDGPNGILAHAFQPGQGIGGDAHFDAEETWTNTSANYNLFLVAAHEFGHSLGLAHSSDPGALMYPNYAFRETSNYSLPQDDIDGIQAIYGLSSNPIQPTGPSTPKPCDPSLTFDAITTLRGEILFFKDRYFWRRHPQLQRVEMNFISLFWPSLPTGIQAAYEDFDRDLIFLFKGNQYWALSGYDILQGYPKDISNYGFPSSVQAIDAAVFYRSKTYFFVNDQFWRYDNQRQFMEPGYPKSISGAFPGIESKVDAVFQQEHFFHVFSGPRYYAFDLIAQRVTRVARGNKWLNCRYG
MMP-9, sequence (P14780 107-707 limits assumed): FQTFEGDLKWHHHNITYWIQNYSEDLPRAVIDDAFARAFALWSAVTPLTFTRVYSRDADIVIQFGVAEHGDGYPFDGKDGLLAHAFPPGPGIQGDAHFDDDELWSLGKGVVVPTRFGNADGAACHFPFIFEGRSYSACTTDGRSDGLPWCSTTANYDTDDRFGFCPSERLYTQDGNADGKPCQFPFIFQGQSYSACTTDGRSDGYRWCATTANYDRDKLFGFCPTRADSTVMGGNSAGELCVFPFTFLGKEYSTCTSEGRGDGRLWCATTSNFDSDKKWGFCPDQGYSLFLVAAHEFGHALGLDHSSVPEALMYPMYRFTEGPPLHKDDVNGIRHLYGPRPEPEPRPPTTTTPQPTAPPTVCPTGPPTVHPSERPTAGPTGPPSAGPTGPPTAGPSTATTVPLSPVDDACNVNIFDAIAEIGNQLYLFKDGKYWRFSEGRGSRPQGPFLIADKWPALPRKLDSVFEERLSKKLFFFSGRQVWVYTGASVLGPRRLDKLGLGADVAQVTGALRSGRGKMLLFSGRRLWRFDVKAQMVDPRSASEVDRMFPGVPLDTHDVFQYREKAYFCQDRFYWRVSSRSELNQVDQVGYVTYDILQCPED

## NC(CS)Cc1c[nH]cn1 (centres unmarked) (as salt: TFA) [Compound 1g]
other
  melting point: 196 to 198 °C

## O=S(=O)(N[C@H](CO)CS)c1ccc(Oc2ccccc2)cc1 (racemic) [25d R]
[1]; [6]
  ΔG exp (binding energy toward MMP-2): -5.396 kcal
[2]
  ΔG exp MMP-9: -6.705 kcal
[3]
  ΔG exp MMP-8: -6.870 kcal
[4]
  ΔG exp MMP-1: -4.224 kcal

## Cl.O=S(=O)(N[C@@H](CO)Cc1c[nH]cn1)c1ccc(Oc2ccccc2)cc1 (racemic) [25e R]
[1]; [6]
  ΔG exp (binding energy toward MMP-2): -5.069 kcal
[2]
  ΔG exp MMP-9: -5.042 kcal
[3]
  ΔG exp MMP-8: -4.740 kcal
[4]
  ΔG exp MMP-1: -4.524 kcal

## N[C@H](CO)CS.O=C(O)C(F)(F)F [1d R]
[1]; [6]
  ΔG exp (binding energy toward MMP-2): -4.319 kcal

## N[C@@H](CO)CS.O=C(O)C(F)(F)F [1d S]
[1]; [6]
  ΔG exp (binding energy toward MMP-2): -4.319 kcal

## N[C@@H](CO)Cc1c[nH]cn1.O=C(O)C(F)(F)F.O=C(O)C(F)(F)F [1e R]
[1]; [6]
  ΔG exp (binding energy toward MMP-2): -4.565 kcal

## N[C@H](CO)Cc1c[nH]cn1.O=C(O)C(F)(F)F.O=C(O)C(F)(F)F [1e S]
[1]; [6]
  ΔG exp (binding energy toward MMP-2): -4.565 kcal

## N#CC[C@@H](N)CS.O=C(O)C(F)(F)F [1h R]
[1]; [6]
  ΔG exp (binding energy toward MMP-2): -4.497 kcal

## N#CC[C@H](N)CS.O=C(O)C(F)(F)F [1h S]
[1]; [6]
  ΔG exp (binding energy toward MMP-2): -4.497 kcal

## N#CC[C@@H](N)CO.O=C(O)C(F)(F)F [1i R]
[1]; [6]
  ΔG exp (binding energy toward MMP-2): -4.210 kcal

## N#CC[C@H](N)CO.O=C(O)C(F)(F)F [1i S]
[1]; [6]
  ΔG exp (binding energy toward MMP-2): -4.210 kcal

## O=C(O)C(F)(F)F.O=C(O)C(F)(F)F.[N-]=[N+]=NC[C@H](N)Cc1c[nH]cn1 [1l R]
[1]; [6]
  ΔG exp (binding energy toward MMP-2): -4.524 kcal

## O=C(O)C(F)(F)F.O=C(O)C(F)(F)F.[N-]=[N+]=NC[C@@H](N)Cc1c[nH]cn1 [1l S]
[1]; [6]
  ΔG exp (binding energy toward MMP-2): -4.524 kcal

## O=S(=O)(N[C@@H](CO)CS)c1ccc(Oc2ccccc2)cc1 [25d S]
[1]; [6]
  ΔG exp (binding energy toward MMP-2): -5.396 kcal
[2]
  ΔG exp MMP-9: -6.705 kcal
[3]
  ΔG exp MMP-8: -6.870 kcal
[4]
  ΔG exp MMP-1: -4.224 kcal

## Cl.O=S(=O)(N[C@H](CO)Cc1c[nH]cn1)c1ccc(Oc2ccccc2)cc1 [25e S]
[1]; [6]
  ΔG exp (binding energy toward MMP-2): -5.069 kcal
[2]
  ΔG exp MMP-9: -5.042 kcal
[3]
  ΔG exp MMP-8: -4.740 kcal
[4]
  ΔG exp MMP-1: -4.524 kcal

## CC(=O)NO [AHA, acetohydroxamic acid, reference compound]
[1]; read-out: IC50 (μM ± SD), enzymatic inhibition of MMP-2, catalytic domain of MMP-2, ZBG library, value ± SD
  IC50: 10000 ± 630 µM

## NC(CO)CO [Compound 1a, 2-aminopropane-1,3-diol]
[1]; [6]
  ΔG exp (binding energy toward MMP-2): -4.837 kcal
[5]
  IC50: 280 ± 24 µM

## N#CCC(N)CC#N.O=C(O)C(F)(F)F [Compound 1b, 3-Aminopentanedinitrile Trifluoroacetate]
[1]
  ΔG exp (binding energy toward MMP-2): -4.428 kcal
[5]
  IC50: 560 ± 52 µM

## NC(CO)CS (centres unmarked) [Compound 1d, 2-Amino-3-mercaptopropan-1-ol Trifluoroacetate]
[5]
  IC50: 674 ± 88 µM

## NC(CO)Cc1c[nH]cn1 (centres unmarked) [Compound 1e, 2-Amino-3-(1H-imidazol-4-yl)propan-1-ol Ditrifluoroacetate]
[5]
  IC50: 450 ± 23 µM

## NC(CS)CS.O=C(O)C(F)(F)F [Compound 1f, 2-Aminopropane-1,3-dithiol Trifluoroacetate]
[1]
  ΔG exp (binding energy toward MMP-2): -4.333 kcal
[5]
  IC50: 666 ± 90 µM

## N#CCC(N)CS (centres unmarked) [Compound 1h, 3-Amino-4-mercaptobutanenitrile Trifluoroacetate]
[5]
  IC50: 500 ± 49 µM

## N#CCC(N)CO.O=C(O)C(F)(F)F (centres unmarked) [Compound 1i, 3-Amino-4-hydroxybutanenitrile Trifluoroacetate]
other
  melting point: 131 to 133 °C
[5]
  IC50: 807 ± 98 µM

## [N-]=[N+]=NCC(N)CS (centres unmarked) [Compound 1j, 2-Amino-3-azidopropane-1-thiol Trifluoroacetate]
[5]
  IC50: 520 ± 57 µM

## [N-]=[N+]=NCC(N)Cc1c[nH]cn1 (centres unmarked) [Compound 1l, 1-Azido-3-(1H-imidazol-4-yl)propan-2-amine Ditrifluoroacetate]
[5]
  IC50: 480 ± 25 µM

## O=S(=O)(NC(CO)CO)c1ccc(Oc2ccccc2)cc1 [Compound 25a, N-(1,3-Dihydroxypropan-2-yl)-4-phenoxybenzenesulfonamide]
[1]; [6]
  ΔG exp (binding energy toward MMP-2): -5.655 kcal
[2]
  IC50: 160 ± 15 µM
  ΔG exp MMP-9: -5.178 kcal
[3]
  IC50: 98 ± 8 µM
  ΔG exp MMP-8: -5.460 kcal
[4]
  IC50: 1030 ± 160 µM
  ΔG exp MMP-1: -4.074 kcal
[5]
  IC50: 71 ± 1.9 µM

## O=S(=O)(NC(CO)CS)c1ccc(Oc2ccccc2)cc1 (centres unmarked) [Compound 25d, N-(1-Hydroxy-3-mercaptopropan-2-yl)-4-phenoxybenzenesulfonamide]
[2]
  IC50: 12 ± 4 µM
[2]; [7]
  fold more potent than 25a on MMP-9: 13 fold
[3]
  IC50: 9.1 ± 2.3 µM
[3]; [7]
  fold more potent than 25a on MMP-8: 10 fold
[4]
  IC50: 819 ± 116 µM
[5]
  IC50: 110 ± 10 µM

## O=S(=O)(NC(CO)Cc1c[nH]cn1)c1ccc(Oc2ccccc2)cc1 (centres unmarked) [Compound 25e, N-(1-Hydroxy-3-(1H-imidazol-4-yl)propan-2-yl)-4-phenoxybenzenesulfonamide Hydrochloride]
[2]
  IC50: 200 ± 15 µM
[3]
  IC50: 330 ± 21 µM
[4]
  IC50: 480 ± 30 µM
[5]
  IC50: 190 ± 8.7 µM
